Legend:
Assay type in all cases: in vivo
[1] = tested on: National pickling cucumber; assay: Effects of PGRs on cucumber vines and fruit, 84 days; details: for Average Branch Number / Average Internode Number / Average Vine Length: 84 days after planting; for Average Internode Length: 84 days, vine length divided by internode number; for Average Cucumber Weight: harvested 84 days after planting
Tomato variety TSH04 = assay: Effects of PGRs on tomato fruit weight (greenhouse); details: one truss per plant; 112 days after planting; PGR 6 oz/acre, IAA/kinetin 0.42 or 0.11 micrograms; soil or foliar not told apart
Protocol: In this experiment, the effects of PGRs on tomato yield were determined. Tomato variety TSH04, which is a processing tomato, was used. All plants were grown in five gallon pots in a greenhouse. Eight plants were used for each treatment. Application of the treatments was done aerially to eight plants and in the soil for eight plants to allow comparison of soil versus foliar application of the PGRs. Treatments were 6 oz/acre PGR solution. The treating solutions were prepared by diluting 0.0042 ml of concentrated solution into 100 ml water for application to the soil, or into 50 ml water for foliar application. The IAA solution was prepared by diluting 0.42 micrograms of IAA into 100 ml water for application to the soil, or into 50 ml water for foliar application. The cytokinin solution was prepared by diluting 0.42 micrograms of kinetin into 100 ml water for application to the soil, or into 50 ml water for spraying of the foliage. The solution containing both IAA and kinetin at a 1:1 ratio was prepared by diluting 0.42 micrograms of IAA and 0.42 micrograms of kinetin into 100 ml water for application to the soil, or into 50 ml water for foliar application. A solution containing both IAA and kinetin at a 4:1 ratio was prepared by diluting 0.42 micrograms of IAA and 0.11 micrograms of kinetin into 100 ml water for soil application, or into 50 ml water for foliar application. Finally, a solution containing both IAA and kinetin at a 1:4 ratio was prepared by diluting 0.11 micrograms of IAA and 0.42 micrograms of kinetin into 100 ml water for soil application, or into 50 ml water for foliar application. Water was employed as a control. Plants were kept pruned to one fruiting truss per plant and the weight of the fruit from each plant was measured when most of the fruit had ripened (112 days after planting). FIGS. 6 and 7 illustrate the increased fruit weight achieved, respectively, for total and individual fruits with each treatment.

radish plants [2] = assay: Effects of PGR on radish growth (soil applied); details: soil applied at planting and weekly, PGR solution 12 oz/acre, IAA or kinetin 0.84 micrograms per square foot; for Average Leaf Length: largest leaf, 21 days after planting, ± SD of the mean; for Average Hypocotyl Length: measured 21 days after planting, ± standard deviation of the mean
Protocol: In this experiment, the effects of PGRs on radish growth were observed. A total of eighty (80) plants were used for this experiment. Twenty (20) plants were treated with water as a control. Twenty (20) plants were treated with a PGR solution corresponding to a rate of 12 oz/acre. The PGR solution is an aqueous solution including 0.015% IAA, 0.005% IBA, 0.009% cytokinin and 0.005% gibberellic acid as active ingredients. […] A small measure, 0.0084 ml of this solution, was diluted into 100 ml of water and applied to the soil of a container having a surface area of about 1 square foot to correspond to an application rate of 12 oz/acre. Twenty (20) plants were treated with an auxin solution containing indole-3-acetic acid (IAA) at a rate of 0.84 micrograms in 100 ml water per square foot of surface area of the container. Finally, twenty (20) plants were treated with the cytokinin kinetin at a rate of 0.84 micrograms in 100 ml water per square foot of surface area of the container. Treatments were applied to soil at the time of planting and repeated every week thereafter. Length of the hypocotyl and largest leaf of each plant was measured 21 days after planting. The mean hypocotyl length and leaf length was calculated. Results are tabulated in Table I and illustrated in FIGS. 3 and 4.

[3] = tested on: National pickling cucumber; assay: Effects of PGRs on cucumber internode length, 21 days; details: soil applied weekly, 21 days after planting; for Internode 1 length: first (bottom) internode, 6 oz/acre or 0.42 micrograms; for Internode 2 length: second (middle) internode; for Internode 3 length: third (top) internode
Protocol: In this experiment, the effect of PGRs on cucumber internode length was determined. The cucumber variety used was the National pickling cucumber distributed by NK Lawn & Garden Co. (Chattanooga, Tenn.). Eight plants were used per treatment. Treatments were applied to the soil of each five-gallon pot containing one plant per pot. Treatments were 6 oz/acre PGR solution. The final PGR solution was prepared by diluting 0.0042 ml of the concentrated solution into 100 ml water. The IAA solution was prepared by diluting 0.42 micrograms of IAA into 100 ml water. The cytokinin solution was prepared by diluting 0.42 micrograms of kinetin into 100 ml water. Finally, plants were treated with 6 oz/acre N-Large. The treating solution was prepared by diluting 0.0042 ml of the commercial solution into 100 ml water. N-Large is a formulation containing 4 percent gibberellin (GA3). Water was used as a control. Treatments were applied to the soil at the time of planting, and weekly thereafter. Twenty-one (21) days after planting, the internode length of the first (bottom), second (middle), and third (top) internodes were measured to the nearest millimeter. The average internode length for first, second, and third internodes was calculated for each treatment. Results are tabulated in Table IV and illustrated in FIG. 8.

radish plants [4] = assay: Radish shoot height, treated twice at four day intervals; details: IAA and kinetin equivalent to relative amounts in 6 oz/acre PGR solution; two treatments; 15 plants
Protocol: In this portion of the experiment radish plants were treated twice at four day intervals. Plants were treated first on emergence, and again four (4) days later. Measurements were taken one week after the last treatment. Treatments are equivalent to 6 oz/acre, 12 oz/acre, and 24 oz/acre of PGR solution, while the IAA and kinetin treatments are equivalent to the relative amounts in the 6 oz/acre rate of PGR solution. […] The results of these experiments are tabulated in Table II and illustrated in FIG. 5.

## O=C(O)Cc1c[nH]c2ccccc12 [Auxin, indole-3-acetic acid]
[1]
  Average Branch Number: 7.25 ± 1.86
  Average Internode Number: 30.75 ± 1.96
  Average Vine Length: 267.00 ± 5.70 mm
  Average Internode Length: 8.72 ± 0.87 mm
  Average Cucumber Weight: 311.98 ± 9.17 gm
Tomato variety TSH04
  Average total fruit weight per plant: 63.79 ± 7.59 grams
  Average weight of each fruit: 11.45 ± 1.99 grams
Radish plants [2]
  Average Leaf Length: 121.15 ± 5.20 mm
  Average Hypocotyl Length: 51.15 ± 2.64 mm
[3]
  Internode 1 length: 115.88 ± 4.01 millimeters
  Internode 2 length: 25.38 ± 3.13 millimeters
  Internode 3 length: 4.50 ± 1.91 millimeters
Radish plants [4]
  Shoot Height Foliar Applied: 91.46 ± 4.20 mm

## c1coc(CNc2ncnc3[nH]cnc23)c1 [Cytokinin, kinetin]
[1]
  Average Branch Number: 6.25 ± 2.27
  Average Internode Number: 30.50 ± 1.75
  Average Vine Length: 255.50 ± 5.61 mm
  Average Internode Length: 8.37 ± 0.62 mm
  Average Cucumber Weight: 229.71 ± 1.33 gm
Tomato variety TSH04
  Average total fruit weight per plant: 89.08 ± 6.85 grams
  Average weight of each fruit: 14.76 ± 2.47 grams
Radish plants [2]
  Average Leaf Length: 101.25 ± 4.46 mm
  Average Hypocotyl Length: 46.10 ± 3.10 mm
[3]
  Internode 1 length: 106.38 ± 3.98 millimeters
  Internode 2 length: 20.25 ± 3.40 millimeters
  Internode 3 length: 2.13 ± 1.25 millimeters
Radish plants [4]
  Shoot Height Foliar Applied: 89.00 ± 4.55 mm
